Reference: patent US8501936B2 (priority 2009, dated 2013)

Assays:
human JAK2 = human JAK2 (Homo sapiens (Human), UniProt O60674); conditions: read-out: JAK2 IC50
human FAK = human FAK (Homo sapiens (Human), UniProt Q05397); conditions: read-out: FAK IC50
Sequence of human FAK (Q05397 whole entry): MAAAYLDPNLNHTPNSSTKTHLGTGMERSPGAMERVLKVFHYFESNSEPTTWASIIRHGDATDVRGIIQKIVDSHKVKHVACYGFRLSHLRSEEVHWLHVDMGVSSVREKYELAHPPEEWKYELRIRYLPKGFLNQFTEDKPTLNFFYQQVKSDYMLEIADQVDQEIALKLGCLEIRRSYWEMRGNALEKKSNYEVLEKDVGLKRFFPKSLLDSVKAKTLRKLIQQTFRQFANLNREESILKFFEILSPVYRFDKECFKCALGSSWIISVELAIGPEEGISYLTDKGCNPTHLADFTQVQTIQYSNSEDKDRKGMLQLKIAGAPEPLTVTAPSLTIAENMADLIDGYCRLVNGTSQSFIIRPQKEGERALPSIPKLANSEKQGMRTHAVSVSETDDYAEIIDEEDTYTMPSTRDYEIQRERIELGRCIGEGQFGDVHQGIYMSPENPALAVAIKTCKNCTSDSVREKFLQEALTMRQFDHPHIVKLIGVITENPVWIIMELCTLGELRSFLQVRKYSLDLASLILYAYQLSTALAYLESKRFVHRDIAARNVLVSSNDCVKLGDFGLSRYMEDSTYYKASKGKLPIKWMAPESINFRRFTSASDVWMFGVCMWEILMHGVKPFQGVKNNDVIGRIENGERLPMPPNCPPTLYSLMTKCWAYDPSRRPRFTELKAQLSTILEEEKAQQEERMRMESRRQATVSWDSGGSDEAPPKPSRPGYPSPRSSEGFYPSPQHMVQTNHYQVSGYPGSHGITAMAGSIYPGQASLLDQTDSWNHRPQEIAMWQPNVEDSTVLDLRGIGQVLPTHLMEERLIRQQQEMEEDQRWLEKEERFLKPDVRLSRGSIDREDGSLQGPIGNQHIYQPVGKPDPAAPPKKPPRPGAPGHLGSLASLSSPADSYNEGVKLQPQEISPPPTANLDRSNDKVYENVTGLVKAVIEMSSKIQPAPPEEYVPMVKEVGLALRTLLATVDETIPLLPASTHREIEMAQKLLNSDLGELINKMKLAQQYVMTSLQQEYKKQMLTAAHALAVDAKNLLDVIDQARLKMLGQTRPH

Sequence of human JAK2 (O60674 815-1132): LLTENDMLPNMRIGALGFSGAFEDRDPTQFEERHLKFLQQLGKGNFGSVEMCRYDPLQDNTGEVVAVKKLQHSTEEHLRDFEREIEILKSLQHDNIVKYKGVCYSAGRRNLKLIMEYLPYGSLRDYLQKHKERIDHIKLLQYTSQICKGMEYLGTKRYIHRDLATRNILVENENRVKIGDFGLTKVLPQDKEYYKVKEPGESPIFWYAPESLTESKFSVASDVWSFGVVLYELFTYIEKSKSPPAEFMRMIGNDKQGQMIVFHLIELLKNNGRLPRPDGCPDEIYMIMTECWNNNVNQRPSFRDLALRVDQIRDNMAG

SMILES	IC50 (human JAK2) [nM]	IC50 (human FAK) [nM]
CN1CCN(c2cccc(Nc3nc4c(Nc5ccccc5CN(C)S(C)(=O)=O)cccn4n3)c2)CC1 [Example 172, N-Methyl-N-(2-{2-[3-(4-methyl-piperazin-1-yl)-phenylamino]-[1,2,4]triazolo[1,5-a]pyridin-8-ylamino}-benzyl)-methanesulfonamide]	453	3000
CN(Cc1ccccc1Nc1cccn2nc(Nc3ccc(OCCN4CCCC4)cc3)nc12)S(C)(=O)=O [Example 173, N-Methyl-N-(2-{2-[4-(2-pyrrolidin-1-yl-ethoxy)-phenylamino]-[1,2,4]triazolo[1,5-a]pyridin-8-ylamino}-benzyl)-methanesulfonamide]	143	2000
CN1CCC(c2ccc(Nc3nc4c(Nc5ccccc5CN(C)S(C)(=O)=O)cccn4n3)cc2)CC1 [Example 174, N-Methyl-N-(2-{2-[4-(1-methyl-piperidin-4-yl)-phenylamino]-[1,2,4]triazolo[1,5-a]pyridin-8-ylamino}-benzyl)-methanesulfonamide]	111	10000
CN1CCN(c2ccc(Nc3nc4c(-c5cccc(CN(C)S(C)(=O)=O)c5)cccn4n3)cc2)CC1 [Example 175, N-Methyl-N-(3-{2-[4-(4-methyl-piperazin-1-yl)-phenylamino]-[1,2,4]triazolo[1,5-a]pyridin-8-yl}-benzyl)-methanesulfonamide]	7.95	3000
CN1CCN(c2cccc(Nc3nc4c(-c5cccc(CN(C)S(C)(=O)=O)c5)cccn4n3)c2)CC1 [Example 176, N-Methyl-N-(3-{2-[3-(4-methyl-piperazin-1-yl)-phenylamino]-[1,2,4]triazolo[1,5-a]pyridin-8-yl}-benzyl)-methanesulfonamide]	5.94	3000
CN(Cc1cccc(-c2cccn3nc(Nc4ccc(OCCN5CCCC5)cc4)nc23)c1)S(C)(=O)=O [Example 177, N-Methyl-N-(3-{2-[4-(2-pyrrolidin-1-yl-ethoxy)-phenylamino]-[1,2,4]triazolo[1,5-a]pyridin-8-yl}-benzyl)-methanesulfonamide]	7.34	3000
CC(C)(C)OC(=O)N1CCN(c2cccc(Nc3nc4c(-c5ccc(S(C)(=O)=O)cc5)cccn4n3)c2)CC1 [Example 179, 4-{3-[8-(4-Methanesulfonyl-phenyl)-[1,2,4]triazolo[1,5-a]pyridin-2-ylamino]-phenyl}-piperazine-1-carboxylic acid tert-butyl ester]	3.72	10000
CS(=O)(=O)c1ccc(-c2cccn3nc(Nc4cccc(N5CCNCC5)c4)nc23)cc1 [Example 181, [8-(4-Methanesulfonyl-phenyl)-[1,2,4]triazolo[1,5-a]pyridin-2-yl]-(3-piperazin-1-yl-phenyl)-amine]	0.97	1130
CS(=O)(=O)c1ccc(-c2cccn3nc(Nc4cccc(N5CCN(CC(N)=O)CC5)c4)nc23)cc1 [Example 183, 2-(4-{3-[8-(4-Methanesulfonyl-phenyl)-[1,2,4]triazolo[1,5-a]pyridin-2-ylamino]-phenyl}-piperazin-1-yl)-acetamide]	0.65	6500
CS(=O)(=O)c1ccc(-c2cccn3nc(Nc4cccc(C5CCN(CC(N)=O)CC5)c4)nc23)cc1 [Example 184, 2-(4-{3-[8-(4-Methanesulfonyl-phenyl)-[1,2,4]triazolo[1,5-a]pyridin-2-ylamino]-phenyl}-piperidin-1-yl)-acetamide]	0.41	384
CN1CCN(c2ccc(Nc3nc4c(N(C)Cc5ccccc5N(C)S(C)(=O)=O)cccn4n3)cc2)CC1 [Example 185, N-Methyl-N-{2-[(methyl-{2-[4-(4-methyl-piperazin-1-yl)-phenylamino]-[1,2,4]triazolo[1,5-a]pyridin-8-yl}-amino)-methyl]-phenyl}-methanesulfonamide]	51.1	62.5
CS(=O)(=O)c1ccc(-c2cccn3nc(Nc4cccc(N5CCN(CCCF)CC5)c4)nc23)cc1 [Example 187, {3-[4-(3-Fluoro-propyl)-piperazin-1-yl]-phenyl}-[8-(4-methanesulfonyl-phenyl)-[1,2,4]triazolo[1,5-a]pyridin-2-yl]-amine]	4.93	2440
CN1CCN(c2ccc(Nc3nc4c(C#Cc5ccccc5N(C)S(C)(=O)=O)cccn4n3)cc2)CC1 [Example 189, N-Methyl-N-(2-{2-[4-(4-methyl-piperazin-1-yl)-phenylamino]-[1,2,4]triazolo[1,5-a]pyridin-8-ylethynyl}-phenyl)-methanesulfonamide]	2.61	522
CN1CCN(c2cccc(Nc3nc4c(C#Cc5ccccc5N(C)S(C)(=O)=O)cccn4n3)c2)CC1 [Example 192, N-Methyl-N-(2-{2-[3-(4-methyl-piperazin-1-yl)-phenylamino]-[1,2,4]triazolo[1,5-a]pyridin-8-ylethynyl}-phenyl)-methanesulfonamide]	23.9	2420
CN1Cc2ccc(Nc3nc4c(C#Cc5ccccc5N(C)S(C)(=O)=O)cccn4n3)cc2C1 [Example 193, N-Methyl-N-{2-[2-(2-methyl-2,3-dihydro-1H-isoindol-5-ylamino)-[1,2,4]triazolo[1,5-a]pyridin-8-ylethynyl]-phenyl}-methanesulfonamide]	11.5	3000
CN1CCN(c2ccc(Nc3nc4c(CCc5ccccc5N(C)S(C)(=O)=O)cccn4n3)cc2)CC1 [Example 194, N-Methyl-N-[2-(2-{2-[4-(4-methyl-piperazin-1-yl)-phenylamino]-[1,2,4]triazolo[1,5-a]pyridin-8-yl}-ethyl)-phenyl]-methanesulfonamide]	218	41.7
CN1CCN(c2ccc(Nc3nc4c(OCc5ccccc5N(C)S(C)(=O)=O)cccn4n3)cc2)CC1 [Example 195, N-Methyl-N-(2-{2-[4-(4-methyl-piperazin-1-yl)-phenylamino]-[1,2,4]triazolo[1,5-a]pyridin-8-yloxymethyl}-phenyl)-methanesulfonamide]	15	21.8
CN1CCN(c2ccc(Nc3nc4c(/C=C/c5ccccc5N(C)S(C)(=O)=O)cccn4n3)cc2)CC1 [Example 196, N-Methyl-N-[2-((E)-2-{2-[4-(4-methyl-piperazin-1-yl)-phenylamino]-[1,2,4]triazolo[1,5-a]pyridin-8-yl}-vinyl)-phenyl]-methanesulfonamide]	32.1	999
CC(Nc1cccn2nc(Nc3ccc(N4CCN(C)CC4)cc3)nc12)c1ccccc1N(C)S(C)(=O)=O (centres unmarked) [Example 197, N-Methyl-N-[2-(1-{2-[4-(4-methyl-piperazin-1-yl)-phenylamino]-[1,2,4]triazolo[1,5-a]pyridin-8-ylamino}-ethyl)-phenyl]-methanesulfonamide]	418	999
CN1CCN(c2cccc(Nc3nc4c(-c5ccc(P(C)(C)=O)cc5)cccn4n3)c2)CC1 [Example 198, {8-[4-(Dimethyl-phosphinoyl)-phenyl]-[1,2,4]triazolo[1,5-a]pyridin-2-yl}-[3-(4-methyl-piperazin-1-yl)-phenyl]-amine]	1.73	10000
CP(C)(=O)c1ccc(-c2cccn3nc(N(CCS(C)(=O)=O)c4cccc(C5CCN(CCS(C)(=O)=O)CC5)c4)nc23)cc1 [Example 199, {8-[4-(Dimethyl-phosphinoyl)-phenyl]-[1,2,4]triazolo[1,5-a]pyridin-2-yl}-(2-methanesulfonyl-ethyl)-{3-[1-(2-methanesulfonyl-ethyl)-piperidin-4-yl]-phenyl}-amine]	95.8	10000
CN(c1ccccc1CNc1cccn2nc(Nc3ccc4c(c3)CCC(N3CCOCC3)CC4)nc12)S(C)(=O)=O (centres unmarked) [Example 200, N-Methyl-N-(2-{[2-(7-morpholin-4-yl-6,7,8,9-tetrahydro-5H-benzocyclohepten-2-ylamino)-[1,2,4]triazolo[1,5-a]pyridin-8-ylamino]-methyl}-phenyl)-methanesulfonamide]	134	18.2
CN(c1ccccc1CNc1cccn2nc(Nc3ccc4cnccc4c3)nc12)S(C)(=O)=O [Example 201, N-(2-{[2-(Isoquinolin-6-ylamino)-[1,2,4]triazolo[1,5-a]pyridin-8-ylamino]-methyl}-phenyl)-N-methyl-methanesulfonamide]	116	167
CN(c1ccccc1CNc1cccn2nc(Nc3ccccc3)nc12)S(C)(=O)=O [Example 202, N-Methyl-N-{2-[(2-phenylamino-[1,2,4]triazolo[1,5-a]pyridin-8-ylamino)-methyl]-phenyl}-methanesulfonamide]	571	189
CP(C)(=O)c1ccc(-c2cccn3nc(Nc4cccc(C5CCN(CCS(C)(=O)=O)CC5)c4)nc23)cc1 [Example 203, {8-[4-(Dimethyl-phosphinoyl)-phenyl]-[1,2,4]triazolo[1,5-a]pyridin-2-yl}-{3-[1-(2-methanesulfonyl-ethyl)-piperidin-4-yl]-phenyl}-amine]	166	10000
CN1CCN(c2cccc(Nc3nc4c(-c5ccc(S(C)(=O)=O)cc5)cccn4n3)c2)C(=O)C1 [Example 204, 1-{3-[8-(4-Methanesulfonyl-phenyl)-[1,2,4]triazolo[1,5-a]pyridin-2-ylamino]-phenyl}-4-methyl-piperazin-2-one]	1.63	10000
CN1CCN(c2cccc(Nc3nc4c(-c5ccc(N6CCC(N7CCN(C)CC7)CC6)cc5)cccn4n3)c2)CC1 [Example 206, [3-(4-Methyl-piperazin-1-yl)-phenyl]-(8-{4-[4-(4-methyl-piperazin-1-yl)-piperidin-1-yl]-phenyl}-[1,2,4]triazolo[1,5-a]pyridin-2-yl)-amine]	45	3000
CN1CCN(c2cccc(Nc3nc4c(-c5ccc(P(C)(C)=O)cc5)cccn4n3)c2)C(=O)C1 [Example 207, 1-(3-{8-[4-(Dimethyl-phosphinoyl)-phenyl]-[1,2,4]triazolo[1,5-a]pyridin-2-ylamino}-phenyl)-4-methyl-piperazin-2-one]	10.5	10000
